Measured values taken from article PMC8148468, “Shikimic acid protects skin cells from UV-induced senescence through activation of the NAD+-dependent deacetylase SIRT1” (Aging (Albany NY), 2021).
Read-outs that look alike come from different tables or passages of the source.

Tests used:
[1] = tested on: UVB-irradiated human dermal fibroblasts (HDFs); assay: UVB-induced senescence assay: SA-β-Gal staining; type: cell-based; settings: for β-Gal: HDF, 2 cycles of UVB, compound day 1 to 7, Figure 2B; for prevention of UV-induced cellular senescence: UVB-irradiated HDF, SA-β-Gal and HAS2 markers; on β-Gal: key: ↑: increase; ↓: decrease; hyphens that indicate no effect (-)
Procedure: (§1) In the second approach, we established a method for inducing senescence in these cells with 2 cycles of UVB irradiation 72h apart (Figure 2A). The use of UVA to induce senescence was discarded due to its considerably longer time requirement, being unsuitable to screen 30 compounds within a reasonable period. Cells were treated with these compounds throughout the duration of the assay and cellular senescence was monitored with two markers: accumulation of SA-β-galactosidase (SA-β-Gal) activity, and the decrease in expression of HAS2 (hyaluronic acid synthase 2), a previously reported marker of skin senescence.
(§2) Figure 2 (A) Schematic representation of the protocol for senescence induction using UVB irradiation. Cells were treated -/+ the compounds from day 1 to 7 after seeding, irradiated with UVB on days 2 and 5 and harvested for analysis on day 7. […] (C) Phase-contrast (left column) and bright field (right column) microscope images of SA-β-Gal staining showing non-irradiated cells, UVB-irradiated cells non-treated and treated with Gallic acid or Shikimic acid at the indicated concentrations. (D) Percentage of SA-β-Gal positive cells and (E) Relative HAS2 mRNA levels in non-irradiated cells, UVB-irradiated cells and UVB-irradiated cells treated with Gallic acid or Shikimic acid at the indicated concentrations. Student T-test, *p<0.05, **p<0.01, ***p<0.001.
(§3) The protocol for senescence induction using UVB irradiation is described in the Supplementary Methods. SA-β-Gal staining, WST-1, sulforhodamine B (SRB) and trypan blue assays were performed as previously described. For the siRNA experiments, the protocol for senescence induction using UVB irradiation was the same as in the Supplementary Methods. Specific siRNA (Horizon discovery, UK) for SIRT1, SIRT2, SIRT6, BiP or scramble siRNA were incubated for 6 hours before each irradiation step.
(§4) Senescence induction by UVB irradiation For the non-irradiation control conditions, HDF were […]
(§5) After 24h, culture medium was removed and well plates. After 24h, culture medium was removed replaced by fresh cell culture medium containing the and replaced with fresh cell culture medium containing compounds at different concentrations. After 24h, the compounds at different concentrations. […]
(§6) cell culture medium was removed, and cells were cells/plate in fresh cell culture medium containing the irradiated at 25 mJ/cm2 of UVB light (312 nm) in a Bio- compound in 6-well plates. After 3 days, cells were […]
(§7) amount of PBS. PBS was then removed and fresh cell fresh cell culture medium containing the compound in culture medium with the compound was added to each 6-well plates. After 2 days, cells were processed well. After 3 days, cells were irradiated again under the according to the qPCR, β-Gal staining, apoptosis, cell same conditions. After 2 days, cells were processed cycle or immunofluorescence protocols. according to the qPCR, β-Gal staining, apoptosis, cell cycle or immunofluorescence protocols.

[2] = tested on: primary human dermal fibroblasts (HDFs)
Excerpt: In our efforts to identify novel factors that could prevent skin cell senescence, we developed a screening process to identify new modulators of the protective role of sirtuins in UV-induced senescence. For this purpose, we established a culture of primary human dermal fibroblasts (HDFs). […] Our first step in the screening was to establish the optimal concentrations of these compounds in the case of HDFs. […] Once established, we took these parameters into account to decide the specific working range of concentrations for each compound.
Human dermal fibroblasts (HDFs) (Promocell, Germany) from 40-year old Caucasian women were used as the in vitro model for compound viability and efficacy screening. Cells were cultured in Dulbecco's modified eagle medium (DMEM) low glucose (Biowest, France) supplemented with 10% fetal bovine serum (FBS) (Capricorn Scientific, Germany) and 10 U/mL penicillin/streptomycin (Biowest, France) in a humidified incubator at 37° C and 5% CO2. For cell passage, cells at 80% confluence were trypsinized and plated at 60% confluence. Cells between passage 13 and 18 were used for the assays. For the SIRT1 in vitro assay, HEK293 cells (ATCC, USA), used to transfect and immunoprecipitate SIRT1 protein, were grown in DMEM high glucose (Thermo Fisher Scientific, USA), supplemented with 10% FBS in a humidified incubator at 37° C and 5% CO2. The following experiments were all performed in triplicate.
as §3

[3] = tested on: HAS2 (hyaluronic acid synthase 2); assay: UVB-induced senescence assay: HAS2 gene expression (qPCR); type: cell-based, human
Procedure: as §1, §2
RNA was extracted from cell pellets using the Total RNA Purification Kit (Norgen, Canada), according to the manufacturer’s protocol. Extracted RNA was quantified using a NanoDrop® ND-1000 UV-Vis Spectrophotometer (Thermo Fisher Scientific, USA) and 300 ng of RNA were retrotranscribed to cDNA using the PrimeScriptTM RT reagent kit (Takara Bio Inc., Japan). cDNA was diluted 1/10 in ultrapure water and qPCR mix was prepared by adding cDNA (12 ng), SYBR green supermix (Bio Rad, USA), forward and reverse primers (0.2μM). The primers and their respective sequences are listed in Supplementary Table 1. qPCR protocol included one step at 95° C for 30 s, 40 cycles at 95° C for 10s, and 60° C for 1min. The results were analyzed with Bio-Rad CFX Manager software. BACT was used as a housekeeping gene to normalize gene expression.
as §4, §5, §6, §7

[4] = tested on: H4K16ac (the target of SIRT1 and SIRT2); assay: Sirtuin activity assay in HDF: H4K16ac levels (Western blot); type: cell-based, human; settings: HDF treated 24h; for SIRT1,2 H4K16ac: Figure 1B; on SIRT1,2 H4K16ac: key: ↑: increase; ↓: decrease; hyphens that indicate no effect (-)
Procedure: (§8) Figure 1 (A) Schematic representation of the compound testing for sirtuin activity evaluation in HDF. Cells were treated with or without the compounds for 24h and harvested for analysis. […] (C) Western Blot analysis and (D) quantification of H4K16ac and H3K9ac levels in cells treated with Resveratrol or Shikimic acid at the indicated concentrations. H4K16 and H3K9 levels were normalized to H4 and H3 levels respectively. Student T-test, *p<0.05, **p<0.01, ***p<0.001.
(§9) HDFs were plated in 100x20 mm2 cell culture plates and after 24h, fresh cell culture medium containing the compounds was added. After 24h, cells were detached with cell scrapers, harvested, and processed for qPCR or western blot.
(§10) Protein levels were analyzed as previously described. Cells were directly lysed in 1x Laemmli Buffer (Bio-Rad, USA), incubated at 95° C and centrifuged. Supernatant was subjected to SDS-polyacrylamide gel electrophoresis, and successive steps were performed as described. The list of antibodies used is included in Supplementary Table 2.

[5] = tested on: H3K9ac (the target of SIRT1, SIRT2 and SIRT6); assay: Sirtuin activity assay in HDF: H3K9ac levels (Western blot); type: cell-based, human; settings: HDF treated 24h; for SIRT1,2,6 H3K9ac: Figure 1B; on SIRT1,2,6 H3K9ac: key: ↑: increase; ↓: decrease; hyphens that indicate no effect (-)
Procedure: as §8, §9, §10

[6] = HDF, 2 cycles of UVB, compound day 1 to 7, Figure 2B
[7] = HDFs, WST-1 cell viability test
[8] = HDFs, WST-1 cell viability test, maximum non-cytotoxic dose

SMILES	β-Gal [1]	prevention of UV-induced cellular senescence [1]	LD50 ([2]; female, human)	Max. non-cyt. doses ([2]; female, human)	HAS2 expression [3, 6]	effect on H4K16ac levels [4]	effect on H3K9ac levels [5]	LD50 [2, 7]	Max. non-cyt. doses [2, 8]	SIRT1,2 H4K16ac [4]	SIRT1,2,6 H3K9ac [5]	Max. non-cyt. doses [2]	HAS2 expression ([3]; UVB-irradiated HDF)
CC(C)(CO)[C@@H](O)C(=O)NCCCO [Dexpanthenol, reference compound]	-	did not prevent cellular senescence	262.48 mM	100 mM	-	induced a similar effect on both targets	induced a similar effect on both targets						
Oc1ccc2c(c1)OCO2 [Sesamol]		did not prevent cellular senescence			-	induced a similar effect on both targets	induced a similar effect on both targets	4.358 mM	0.5 mM				
COc1cc(C=O)ccc1O [Vanillin]	-		5.912 mM	1 mM	-					-	-		
COc1cc(C(=O)O)cc(OC)c1O [Syringic acid]	-		3.65 mM	1 mM	-					-	-		
c1coc(CNc2ncnc3[nH]cnc23)c1 [Kinetin]	-		1.835 mM	0.5 mM	-		reduced the levels of H3K9ac only			-			
O=C(OC[C@H]1OC(O)[C@@](O)(COC(=O)c2cc(O)c(O)c(O)c2)[C@@H]1O)c1cc(O)c(O)c(O)c1 (some centres unmarked) [Hamamelitannin]	-				-			0.247 mM	0.1 mM	-	-		
C[N+](C)(C)CC(=O)O [Betaine]	-				-			507.81 mM	50 mM	-	-		
C=C1CC[C@@H]2[C@](C)(CO)[C@H](O)CC[C@@]2(C)[C@@H]1C/C=C1/C(=O)OC[C@H]1O [Andrographolide]	-	did not prevent cellular senescence			-	induced a similar effect on both targets	induced a similar effect on both targets	0.124 mM	0.01 mM				
C/C=C/C(=O)C1=C(C)C=CCC1(C)C [Damascenone]	-				-			0.121 mM		-	-	0.05 mM	
O=c1c(O)c(-c2ccc(O)c(O)c2)oc2cc(O)cc(O)c12 [Quercetin, reference compound]	-			0.25 mM		induced a similar effect on both targets	induced a similar effect on both targets	0.604 mM					only promoted HAS2 upregulation
NC(=S)N/N=C/c1ccccc1O [Salicyladehyde thiosemicarbazone]	-				-			4.175 mM	0.5 mM	-	-		
